The values below come from ChEMBL document CHEMBL4665642, “Anticancer profile of newly synthesized BRAF inhibitors possess 5-(pyrimidin-4-yl)imidazo[2,1-b]thiazole scaffold” (Bioorg Med Chem, 2019).

In general, pIC50 refers to the negative decadic logarithm of the IC50, by convention in mol/L.

Each structure is given as a SMILES string. pIC50: −log10 of the molar value.

One assay deals with L132. Put plainly: Cytotoxicity against human L132 cells assessed as reduction in cell viability by MTT assay. The class given is cell-based. (In general: Tetrazolium dyes change colour on reduction, which living cells bring about.)
For the next assay, the system named is A-375. Put plainly: Cytotoxicity against human A-375 cells assessed as reduction in cell viability by MTT assay. It counts as functional, cell-based.
A further assay relates to SK-MEL-28. Nature of the assay: Cytotoxicity against human SK-MEL-28 cells assessed as reduction in cell viability by MTT assay. The class given is functional, cell-based.
Assay [1] deals with RAF proto-oncogene serine/threonine-protein kinase (Homo sapiens, UniProt P04049). Nature of the assay: Inhibition of human CRAF using MEK1 as substrate by [gamma-33P]-ATP assay.
Assay [2] has as its target Serine/threonine-protein kinase B-raf (Homo sapiens, UniProt P15056, V600E). Nature of the assay: Inhibition of human BRAF V600E mutant using MEK1 as substrate by […] assay.
Assay [3] deals with Serine/threonine-protein kinase B-raf (Homo sapiens, UniProt P15056). Nature of the assay: Inhibition of human BRAF using MEK1 as substrate by […] assay.
Serine/threonine-protein kinase B-raf (Homo sapiens, UniProt P15056), sequence (P15056 whole entry): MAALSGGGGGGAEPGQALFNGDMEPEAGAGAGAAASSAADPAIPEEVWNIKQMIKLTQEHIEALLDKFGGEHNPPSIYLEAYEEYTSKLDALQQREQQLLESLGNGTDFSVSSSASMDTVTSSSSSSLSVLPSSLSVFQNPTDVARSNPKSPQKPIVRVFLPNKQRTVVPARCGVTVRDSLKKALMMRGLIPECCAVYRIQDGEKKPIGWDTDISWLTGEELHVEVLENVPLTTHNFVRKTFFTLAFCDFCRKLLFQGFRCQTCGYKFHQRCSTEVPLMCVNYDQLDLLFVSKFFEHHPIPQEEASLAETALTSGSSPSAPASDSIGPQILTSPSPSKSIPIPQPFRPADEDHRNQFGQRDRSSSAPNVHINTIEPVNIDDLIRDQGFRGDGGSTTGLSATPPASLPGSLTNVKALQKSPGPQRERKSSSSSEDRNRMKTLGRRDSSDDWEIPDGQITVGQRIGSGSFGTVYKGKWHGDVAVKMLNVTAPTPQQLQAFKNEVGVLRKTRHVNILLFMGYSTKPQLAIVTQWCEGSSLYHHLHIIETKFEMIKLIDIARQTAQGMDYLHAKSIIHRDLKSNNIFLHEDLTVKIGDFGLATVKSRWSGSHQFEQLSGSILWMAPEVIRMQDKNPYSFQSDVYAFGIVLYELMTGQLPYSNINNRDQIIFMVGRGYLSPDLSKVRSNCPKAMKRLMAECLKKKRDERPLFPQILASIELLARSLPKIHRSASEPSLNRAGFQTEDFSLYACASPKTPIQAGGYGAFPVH

RAF proto-oncogene serine/threonine-protein kinase, sequence (P04049 whole entry): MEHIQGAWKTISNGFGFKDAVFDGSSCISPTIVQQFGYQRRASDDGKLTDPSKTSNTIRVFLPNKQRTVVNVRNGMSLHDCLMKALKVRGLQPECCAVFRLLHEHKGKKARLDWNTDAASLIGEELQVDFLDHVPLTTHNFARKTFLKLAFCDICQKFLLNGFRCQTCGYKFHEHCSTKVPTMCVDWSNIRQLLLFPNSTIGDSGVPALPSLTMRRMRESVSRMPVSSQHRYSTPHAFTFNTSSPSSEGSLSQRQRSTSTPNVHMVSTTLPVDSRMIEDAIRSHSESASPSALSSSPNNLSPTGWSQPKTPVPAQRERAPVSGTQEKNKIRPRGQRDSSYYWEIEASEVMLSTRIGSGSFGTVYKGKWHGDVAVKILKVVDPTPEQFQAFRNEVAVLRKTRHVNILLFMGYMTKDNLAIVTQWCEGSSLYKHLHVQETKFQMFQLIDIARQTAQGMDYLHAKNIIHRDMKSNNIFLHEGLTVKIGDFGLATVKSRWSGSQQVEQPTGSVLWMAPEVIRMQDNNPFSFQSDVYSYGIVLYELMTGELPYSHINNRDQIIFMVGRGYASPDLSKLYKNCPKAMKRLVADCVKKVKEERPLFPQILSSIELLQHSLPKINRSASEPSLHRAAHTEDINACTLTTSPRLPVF
Serine/threonine-protein kinase B-raf (Homo sapiens, UniProt P15056, V600E), sequence (P15056 2-766 V600E limits assumed): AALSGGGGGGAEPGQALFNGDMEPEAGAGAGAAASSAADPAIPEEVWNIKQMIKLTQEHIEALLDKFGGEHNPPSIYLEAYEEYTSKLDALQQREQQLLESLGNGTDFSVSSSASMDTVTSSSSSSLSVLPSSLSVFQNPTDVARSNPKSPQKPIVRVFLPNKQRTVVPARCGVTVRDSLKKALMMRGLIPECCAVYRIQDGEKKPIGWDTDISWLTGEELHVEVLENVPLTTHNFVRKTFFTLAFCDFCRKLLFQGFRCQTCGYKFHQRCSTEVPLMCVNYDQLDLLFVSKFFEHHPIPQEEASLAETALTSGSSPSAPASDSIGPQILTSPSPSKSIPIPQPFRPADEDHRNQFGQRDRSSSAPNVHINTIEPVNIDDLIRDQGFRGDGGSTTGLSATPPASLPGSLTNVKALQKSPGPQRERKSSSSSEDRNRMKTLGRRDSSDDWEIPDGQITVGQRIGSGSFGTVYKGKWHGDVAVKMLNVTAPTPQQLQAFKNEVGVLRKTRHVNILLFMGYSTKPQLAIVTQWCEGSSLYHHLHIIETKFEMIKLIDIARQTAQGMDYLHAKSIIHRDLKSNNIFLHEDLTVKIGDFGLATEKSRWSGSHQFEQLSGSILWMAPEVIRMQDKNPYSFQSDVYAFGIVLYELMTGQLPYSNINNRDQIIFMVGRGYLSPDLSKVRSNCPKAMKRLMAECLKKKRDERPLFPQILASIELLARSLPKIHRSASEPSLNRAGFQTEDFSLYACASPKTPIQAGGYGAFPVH

As for `Cc1ccc(C(=O)NCCNc2nccc(-c3c(-c4cccc(F)c4)nc4sccn34)n2)cc1`, the results for the negative-log IC50 (pIC50) in the assay on L132, in the assay with A-375 and in the assay on SK-MEL-28 were 3.61, 5.23 and 4.73, respectively.
`O=C(NCCCNc1nccc(-c2c(-c3cccc(F)c3)nc3sccn23)n1)c1ccc(Cl)cc1`: the values for the pIC50 with A-375 and in the assay on SK-MEL-28 were 4.86 and below 4.70, respectively.
On the same counts, the results for `Cc1ccc(S(=O)(=O)NCCNc2nccc(-c3c(-c4cccc(F)c4)nc4sccn34)n2)cc1` are 4.81 and below 4.70.
Take `COc1ccc(S(=O)(=O)NCCCNc2nccc(-c3c(-c4cccc(F)c4)nc4sccn34)n2)cc1`: the pIC50 in assay [1] was 7.58; in the assay on A-375 it was 5.26; in assay [2] it was 7.60; in the assay with SK-MEL-28 it was 5.05; in assay [3] it was 7.26.
As to `CNC(=O)c1cc(Oc2ccc(NC(=O)Nc3ccc(Cl)c(C(F)(F)F)c3)cc2)ccn1` [SORAFENIB], the values for the pIC50 in the assay on A-375 and with SK-MEL-28 were 5.10 and 5.02, respectively.
